Experimental data reported in US20090181963A1, “3H-[1,2,3]TRIAZOLO[4,5-D]PYRIMIDINE COMPOUNDS, THEIR USE AS mTOR KINASE AND PI3 KINASE INHIBITORS, AND THEIR [sequence]” (Wyeth, priority 2008, published 2009).

Tests used:
[1] = molecular target: PI3 Kinase α (Homo sapiens, UniProt P42336); assay: Fluorescence polarization assay for PI3K (PI3 Kinase α); type: biochemical; details: diC8-PI(4,5)P2 substrate, 25 μM ATP, one hour at 25° C.
Protocol: Nunc 384 well black polypropylene fluorescent plates were used for PI3K assays. Reactions were quenched by the addition of EDTA to a final concentration of 10 μM. Final reaction volumes were 10 ml. […] Reactions were allowed to proceed for one hour at 25° C. After I hour, GST-tagged GRP1 (general receptor for phosphoinositides) PH domain fusion protein was added to a final concentration of 100 nM, and BODIPY-TMRI(1,3,4,5)P4 (Echelon) was also added to a final concentration of 5 nM. Final sample volumes were 25 μl with a final DMSO concentration of 0.8%. Assay Plates were read on PerkinElmer Envision plate readers with appropriate filters for Tamra [BODIPY-TMRI(1,3,4,5)P4]. Data obtained were used to calculate enzymatic activity and enzyme inhibition by inhibitor compounds.

[2] = molecular target: PI3 Kinase γ (Homo sapiens, UniProt P48736); assay: Fluorescence polarization assay for PI3K (PI3 Kinase γ); type: biochemical; details: diC8-PI(4,5)P2 substrate, 25 μM ATP, one hour at 25° C.
PI3 Kinase γ, sequence (P48736 whole entry): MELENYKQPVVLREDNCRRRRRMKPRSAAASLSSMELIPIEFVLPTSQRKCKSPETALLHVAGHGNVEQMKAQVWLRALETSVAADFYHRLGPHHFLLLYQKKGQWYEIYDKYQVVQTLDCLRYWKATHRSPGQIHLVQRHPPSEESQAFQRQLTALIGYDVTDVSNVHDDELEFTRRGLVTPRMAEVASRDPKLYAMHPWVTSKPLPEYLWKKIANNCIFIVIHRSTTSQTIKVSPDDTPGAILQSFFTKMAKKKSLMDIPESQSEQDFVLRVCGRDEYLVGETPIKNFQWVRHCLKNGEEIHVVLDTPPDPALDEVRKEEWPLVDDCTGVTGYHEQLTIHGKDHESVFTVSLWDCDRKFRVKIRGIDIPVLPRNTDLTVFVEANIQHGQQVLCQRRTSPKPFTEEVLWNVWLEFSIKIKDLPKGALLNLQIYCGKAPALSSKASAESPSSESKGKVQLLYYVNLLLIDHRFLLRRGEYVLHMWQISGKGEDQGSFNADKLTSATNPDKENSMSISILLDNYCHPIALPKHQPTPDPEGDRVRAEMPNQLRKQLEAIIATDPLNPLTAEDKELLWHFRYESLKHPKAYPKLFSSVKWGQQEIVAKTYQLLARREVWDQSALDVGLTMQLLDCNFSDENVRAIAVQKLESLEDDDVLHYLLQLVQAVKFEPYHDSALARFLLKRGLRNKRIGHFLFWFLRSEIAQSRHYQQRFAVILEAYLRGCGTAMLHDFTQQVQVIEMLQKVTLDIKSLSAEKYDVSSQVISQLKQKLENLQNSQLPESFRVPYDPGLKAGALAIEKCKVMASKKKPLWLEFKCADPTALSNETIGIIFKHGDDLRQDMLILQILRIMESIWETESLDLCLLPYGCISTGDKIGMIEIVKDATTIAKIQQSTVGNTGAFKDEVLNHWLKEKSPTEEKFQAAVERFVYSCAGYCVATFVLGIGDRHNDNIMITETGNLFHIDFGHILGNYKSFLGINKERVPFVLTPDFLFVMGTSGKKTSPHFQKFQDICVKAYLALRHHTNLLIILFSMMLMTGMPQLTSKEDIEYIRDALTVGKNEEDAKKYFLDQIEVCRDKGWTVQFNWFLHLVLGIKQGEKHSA

PI3 Kinase α, sequence (P42336 whole entry): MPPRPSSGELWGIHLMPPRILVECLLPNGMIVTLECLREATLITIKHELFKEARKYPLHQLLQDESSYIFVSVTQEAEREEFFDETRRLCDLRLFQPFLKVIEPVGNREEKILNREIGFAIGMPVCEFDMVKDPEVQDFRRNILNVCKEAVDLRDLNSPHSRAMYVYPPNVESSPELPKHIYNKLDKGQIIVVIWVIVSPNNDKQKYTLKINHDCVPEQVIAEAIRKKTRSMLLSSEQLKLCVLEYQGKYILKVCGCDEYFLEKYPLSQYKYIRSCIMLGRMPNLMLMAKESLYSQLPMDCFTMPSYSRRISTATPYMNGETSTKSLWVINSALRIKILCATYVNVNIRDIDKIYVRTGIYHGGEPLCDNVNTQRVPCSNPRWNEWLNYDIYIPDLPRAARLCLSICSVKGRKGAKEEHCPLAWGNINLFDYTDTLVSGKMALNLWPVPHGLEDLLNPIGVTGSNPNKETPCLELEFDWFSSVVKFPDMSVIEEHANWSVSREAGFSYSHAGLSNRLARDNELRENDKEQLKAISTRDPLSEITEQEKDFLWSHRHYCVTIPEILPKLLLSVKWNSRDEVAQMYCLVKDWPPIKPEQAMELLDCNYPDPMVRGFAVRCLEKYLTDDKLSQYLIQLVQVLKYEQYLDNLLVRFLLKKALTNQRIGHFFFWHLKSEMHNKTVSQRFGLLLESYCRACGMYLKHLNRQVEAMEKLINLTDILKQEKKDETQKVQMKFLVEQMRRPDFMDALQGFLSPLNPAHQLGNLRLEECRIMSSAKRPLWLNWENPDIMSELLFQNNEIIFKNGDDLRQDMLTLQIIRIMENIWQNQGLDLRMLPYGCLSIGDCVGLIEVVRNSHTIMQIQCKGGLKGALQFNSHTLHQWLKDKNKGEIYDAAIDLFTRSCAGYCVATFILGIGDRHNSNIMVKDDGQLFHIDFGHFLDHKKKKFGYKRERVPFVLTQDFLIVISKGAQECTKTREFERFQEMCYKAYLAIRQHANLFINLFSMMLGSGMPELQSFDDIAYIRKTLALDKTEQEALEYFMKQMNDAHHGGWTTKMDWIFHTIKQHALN
PI3 Kinase α, sequence (P27986 whole entry partner): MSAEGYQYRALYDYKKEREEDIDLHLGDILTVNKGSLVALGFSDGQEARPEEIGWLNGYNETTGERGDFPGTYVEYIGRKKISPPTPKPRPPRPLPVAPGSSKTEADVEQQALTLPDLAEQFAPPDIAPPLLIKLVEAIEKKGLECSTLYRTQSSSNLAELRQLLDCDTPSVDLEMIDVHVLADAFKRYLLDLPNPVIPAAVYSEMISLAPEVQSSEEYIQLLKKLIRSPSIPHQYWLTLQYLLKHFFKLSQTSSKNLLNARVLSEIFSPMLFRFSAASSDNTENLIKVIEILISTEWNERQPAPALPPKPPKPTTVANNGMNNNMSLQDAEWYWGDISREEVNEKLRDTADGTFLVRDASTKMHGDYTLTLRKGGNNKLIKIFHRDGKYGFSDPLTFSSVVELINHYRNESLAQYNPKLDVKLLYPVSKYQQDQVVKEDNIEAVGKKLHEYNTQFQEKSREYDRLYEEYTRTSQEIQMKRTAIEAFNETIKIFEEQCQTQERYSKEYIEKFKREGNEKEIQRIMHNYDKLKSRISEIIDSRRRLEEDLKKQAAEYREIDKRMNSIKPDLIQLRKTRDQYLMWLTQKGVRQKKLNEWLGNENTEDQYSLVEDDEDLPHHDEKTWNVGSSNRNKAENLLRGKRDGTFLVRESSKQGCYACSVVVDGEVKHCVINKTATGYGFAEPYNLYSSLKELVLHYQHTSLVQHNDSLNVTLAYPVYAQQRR

Row | IC50 [1] [µM] | IC50 [2] [µM] | SMILES
1 | 0.1 | 0.62 | CNC(=O)Nc1ccc(-c2nc(N3CCOCC3)c3nnn(C4CCN(Cc5ccccc5)CC4)c3n2)cc1 [Example 6, 1-{4-[3-(1-benzylpiperidin-4-yl)-7-morpholin-4-yl-3H-[1,2,3]triazolo[4,5-d]pyrimidin-5-yl]phenyl}-3-methylurea]
2 | 0.134 | 1.24 | Oc1cccc(-c2nc(N3CCOCC3)c3nnn(C4CN(Cc5ccccc5)C4)c3n2)c1 [Example 127, 3-[3-(1-benzylazetidin-3-yl)-7-morpholin-4-yl-3H-[1,2,3]triazolo[4,5-d]pyrimidin-5-yl]phenol]
3 | 0.0365 | 0.494 | CC(C)(C)OC(=O)N1CCC(n2nnc3c(N4CCOCC4)nc(-c4ccc(NC(=O)Nc5ccncc5)cc4)nc32)CC1 [Example 166, tert-butyl 4-(7-morpholin-4-yl-5-{4-[(pyridin-4-ylcarbamoyl)amino]phenyl}-3H-[1,2,3]triazolo[4,5-d]pyrimidin-3-yl)piperidine-1-carboxylate]
4 | 0.0755 | 1.06 | Oc1cccc(-c2nc(N3CCOCC3)c3nnn(CCc4ccccn4)c3n2)c1 [Example 196, 3-[7-Morpholin-4-yl-3-(2-pyridin-2-yl-ethyl)-3H-[1,2,3]triazolo[4,5-d]pyrimidin-5-yl]-phenol]
5 | 0.658 | 1.7 | O=C(O)Cn1nnc2c(N3CCOCC3)nc(-c3cccc(CO)c3)nc21 [Example 240, {5-[3-(hydroxymethyl)phenyl]-7-morpholin-4-yl-3H-[1,2,3]triazolo[4,5-d]pyrimidin-3-yl}acetic acid]
6 | 0.068 | 0.133 | O=C(Nc1ccc(-c2nc(N3CCOCC3)c3nnn(C4CCN(Cc5ccccc5)CC4)c3n2)cc1)C(F)(F)F [Example 5, N-{4-[3-(1-benzylpiperidin-4-yl)-7-morpholin-4-yl-3H-[1,2,3]triazolo[4,5-d]pyrimidin-5-yl]phenyl}-2,2,2-trifluoroacetamide]
7 | 0.111 | 1.4 | CC(C)(C)OC(=O)N1CCC(n2nnc3c(N4CCOCC4)nc(-c4cnc(N)nc4)nc32)CC1 [Example 148, tert-butyl 4-[5-(2-aminopyrimidin-5-yl)-7-morpholin-4-yl-3H-[1,2,3]triazolo[4,5-d]pyrimidin-3-yl]piperidine-1-carboxylate]
8 | 0.175 | 2.51 | O=C(NCCc1ccccc1)c1ccc(Cn2nnc3c(N4CCOCC4)nc(-c4cccc(O)c4)nc32)cc1 [Example 223, 4-{[5-(3-hydroxyphenyl)-7-morpholin-4-yl-3H-[1,2,3]triazolo[4,5-d]pyrimidin-3-yl]methyl}-N-(2-phenylethyl)benzamide]
9 | 0.0015 | 0.0165 | CCn1nnc2c(N3CCOCC3)nc(-c3ccc(NC(=O)Nc4ccc(C(=O)NCCCN5CCN(C)CC5)cc4)cc3)nc21 [Example 55, 4-({[4-(3-ethyl-7-morpholin-4-yl-3H-[1,2,3]triazolo[4,5-d]pyrimidin-5-yl)phenyl]carbamoyl}amino)-N-[3-(4-methylpiperazin-1-yl)propyl]benzamide]
10 | 0.0765 | 0.144 | Nc1ncc(CN2CCC(n3nnc4c(N5CCOCC5)nc(-c5cncc(O)c5)nc43)CC2)s1 [Example 171, 5-(3-{1-[(2-amino-1,3-thiazol-5-yl)methyl]piperidin-4-yl}-7-morpholin-4-yl-3H-[1,2,3]triazolo[4,5-d]pyrimidin-5-yl)pyridin-3-ol]
11 | < 0.0017 | 0.007 | CCn1nnc2c(N3CCOCC3)nc(-c3ccc(NC(=O)Nc4ccc(C(=O)N5CCNC(C)(C)C5)cc4)cc3)nc21 [Example 57, 1-{4-[(3,3-dimethylpiperazin-1-yl)carbonyl]phenyl}-3-[4-(3-ethyl-7-morpholin-4-yl-3H-[1,2,3]triazolo[4,5-d]pyrimidin-5-yl)phenyl]urea]
12 | 0.0235 | 0.069 | CC(C)n1nnc2c(N3CCOCC3)nc(-c3ccc(NC(=O)Nc4ccc(N(C)C)cc4)cc3)nc21 [Example 86, 1-(4-dimethylamino-phenyl)-3-[4-(3-isopropyl-7-morpholin-4-yl-3H-[1,2,3]triazolo[4,5-d]pyrimidin-5-yl)-phenyl]-urea]
13 | 0.038 | 0.088 | O=C(Nc1ccc(-c2nc(N3CCOCC3)c3nnn(CC(F)(F)F)c3n2)cc1)Nc1cncnc1 [Example 136, 1-{4-[7-morpholin-4-yl-3-(2,2,2-trifluoroethyl)-3H-[1,2,3]triazolo[4,5-d]pyrimidin-5-yl]phenyl}-3-pyrimidin-5-ylurea]
14 | 0.132 | 0.309 | CCn1nnc2c(N3CCOCC3)nc(-c3ccc(NC(=O)NCCN(C)C)cc3)nc21 [Example 34, 1-[2-(dimethylamino)ethyl]-3-[4-(3-ethyl-7-morpholin-4-yl-3H-[1,2,3]triazolo[4,5-d]pyrimidin-5-yl)phenyl]urea]
15 | 0.0036 | 0.031 | CCn1nnc2c(N3CCOCC3)nc(-c3ccc(NC(=O)Nc4ccc(C(=O)NCc5ccncc5)cc4)cc3)nc21 [Example 51, 4-({[4-(3-ethyl-7-morpholin-4-yl-3H-[1,2,3]triazolo[4,5-d]pyrimidin-5-yl)phenyl]carbamoyl}amino)-N-(pyridin-4-ylmethyl)benzamide]
16 | 0.17 | 0.557 | CN(C)CCNC(=O)Nc1ccc(-c2nc(N3CCOCC3)c3nnn(C4CCN(Cc5ccc(Cl)cc5F)CC4)c3n2)cc1 [Example 156, 1-(4-(3-(1-(4-chloro-2-fluorobenzyl)piperidin-4-yl)-7-morpholino-3H-[1,2,3]triazolo[4,5-d]pyrimidin-5-yl)phenyl)-3-(2-(dimethylamino)ethyl)urea]
17 | 0.0055 | 0.103 | CCn1nnc2c(N3CCOC[C@@H]3C)nc(-c3ccc(NC(=O)Nc4ccc(CO)cc4)cc3)nc21 [Example 70, (S)-1-(4-(3-ethyl-7-(3-methylmorpholino)-3H-[1,2,3]triazolo[4,5-d]pyrimidin-5-yl)phenyl)-3-(4-(hydroxymethyl)phenyl)urea]
18 | 0.0105 | 0.0353 | CCn1nnc2c(N3CCOCC3)nc(-c3ccc(NC(=O)Nc4ccc(C(=O)O)cc4)cc3)nc21 [Example 42, 4-({[4-(3-ethyl-7-morpholin-4-yl-3H-[1,2,3]triazolo[4,5-d]pyrimidin-5-yl)phenyl]carbamoyl}amino)benzoic acid]
19 | 0.241 | 0.9 | Oc1cccc(-c2nc(N3CCOCC3)c3nnn(CCN4CCN(Cc5cccc(F)c5)CC4)c3n2)c1 [Example 109, 3-(3-{2-[4-(3-fluorobenzyl)piperazin-1-yl]ethyl}-7-morpholin-4-yl-3H-[1,2,3]triazolo[4,5-d]pyrimidin-5-yl)phenol]
20 | 0.08 | 0.286 | CN(C)CCNC(=O)Nc1ccc(-c2nc(N3CCOCC3)c3nnn(C4CCN(Cc5ccc[nH]5)CC4)c3n2)cc1 [Example 161, 1-(4-(3-(1-((1H-pyrrol-2-yl)methyl)piperidin-4-yl)-7-morpholino-3H-[1,2,3]triazolo[4,5-d]pyrimidin-5-yl)phenyl)-3-(2-(dimethylamino)ethyl)urea]
21 | 0.146 | 0.176 | CN(C)CCNC(=O)Nc1ccc(-c2nc(N3CCOCC3)c3nnn(C4CCN(Cc5ccc(F)cc5)CC4)c3n2)cc1 [Example 153, 1-(2-(dimethylamino)ethyl)-3-(4-(3-(1-(4-fluorobenzyl)piperidin-4-yl)-7-morpholino-3H-[1,2,3]triazolo[4,5-d]pyrimidin-5-yl)phenyl)urea]
